# Test results taken from the RepoRT retention time repository (doi:10.1016/j.jhazmat.2019.121712).
# Test: Thermo Scientific Acclaim RSLC 120 C18, 100 × 2.1 mm, 2.2 µm, 30 °C; A: 90% water + 10% methanol + 0.01% formic acid + 5 mM ammonium formate; B: methanol + 0.01% formic acid + 5 mM ammonium formate; gradient (min/%B) 0.1/1 3/39 14/99.9 16/99.9
# Settings: stereoisomer not certain
row,SMILES,LC retention time [min]
1,CCCCOc1cc(C(=O)OCCN(CC)CC)ccc1N,5.94
2,CCCc1nn(C)c2c(=O)[nH]c(-c3cc(S(=O)(=O)N4CC(C)NC(C)C4)ccc3OCC)nc12 (stereo unspecified),7.6
3,CCCCCCC(C)(C)c1ccc(C2CC(O)CCC2CCCO)c(O)c1 (stereo unspecified),12
4,CCNC(C)Cc1ccc2c(c1)OCO2 (stereo unspecified),4.39
5,CCOc1ccc(NC(=O)CC(C)O)cc1 (stereo unspecified),6.27
6,CN(C)CCc1c[nH]c2ccccc12,3.94
7,CCNc1nc(NC(C)C)nc(SC)n1,9.16
8,CN1CCCN=C1COC(=O)C(O)(c1ccccc1)C1CCCCC1 (stereo unspecified),7.98
9,CNC(=C[N+](=O)[O-])NCCSCc1ccc(CN(C)C)o1,3.14
10,NCC(O)COc1ccccc1C(=O)CCc1ccccc1.O=C(O)C(=O)O (stereo unspecified),7.09
11,Cn1c(=O)c2c(ncn2CC(O)CO)n(C)c1=O (stereo unspecified),3.76
12,COCCOc1c(OC)cc(Cc2cnc(N)nc2N)cc1OC,4.24
13,CNC(=O)Oc1cc(C)c(N(C)C)c(C)c1,9.3
14,CCCc1nn(C)c2c(=O)[nH]c(-c3cc(C(=O)CN4CCN(CC)CC4)ccc3OCC)nc12,7.01
15,CN(C)CCOc1ccccc1Cc1ccccc1,7.29
16,CCCOc1ccc(S(=O)(=O)N2CCN(CCO)CC2)cc1-c1nc2c(CCC)cn(CC)c2c(=O)[nH]1,9.49
17,NC(N)=NS(=O)(=O)c1ccc(N)cc1,1.93
18,CC=C1CC(C)C(C)(O)C(=O)OCC2=CCN(C)CCC(OC1=O)C2=O (stereo unspecified),5.16
19,CCOC(=O)Nc1cccc(OC(=O)Nc2ccccc2)c1,8.57

row,SMILES,LC retention time [min]
1,CNC(=O)C(C)SCCSP(=O)(OC)OC (stereo unspecified),5.02
2,COc1ccc(-c2oc3c(CC=C(C)C)c(OC4OC(CO)C(O)C(O)C4O)cc(O)c3c(=O)c2OC2OC(C)C(O)C(O)C2O)cc1 (stereo unspecified),8.24
3,CC(=O)Nc1ccc(S(=O)(=O)Nc2ncccn2)cc1,4.11
4,CC1COC(=O)c2cc3c(cc21)C(C)(C)C(C)C3(C)C (stereo unspecified),12
5,CC(C)c1cc(Oc2ccccc2)cc(C(C)C)c1NC(=S)NC(C)(C)C,12.9
6,CCC(C(N)=O)N1CCCC1=O (stereo unspecified),3.74
7,C=CCN1CCC23c4c5ccc(O)c4OC2C(O)C=CC3C1C5 (stereo unspecified),3.39
8,CCN(CC)C(=O)c1cccnc1,4.64
9,COc1ccc(CC(C)N)c(OC)c1OC (stereo unspecified),4.16
10,CNCC(C)CN1c2ccccc2Sc2ccc(OC)cc21 (stereo unspecified),8.33
11,NC(=O)c1cc[n+](CC2=C(C(=O)[O-])N3C(=O)C(NC(=O)Cc4cccs4)C3SC2)cc1 (stereo unspecified),4.03
12,COc1ccc(C2Sc3ccccc3N(CCN(C)C)C(=O)C2OC(C)=O)cc1 (stereo unspecified),7.18
13,CCN(CC)C(=O)c1cccc(C)c1,8.2
14,COc1ccc(CN(CCN(C)C)c2ccccn2)cc1,5.89
15,COC(=O)C(C)N(C(=O)Cc1ccccc1)c1c(C)cccc1C (stereo unspecified),10.9
16,COc1ccc2c(c1)N(CC(C)CN(C)C)c1ccccc1S2 (stereo unspecified),8.14
17,CN(C)c1nc(=O)n(C2CCCCC2)c(=O)n1C,7.09
18,CSc1nnc(C(C)(C)C)c(=O)n1N,7.07
19,CCOP(=O)(NC(C)C)Oc1ccc(S(C)(=O)=O)c(C)c1 (stereo unspecified),7.21

row,SMILES,LC retention time [min]
1,CCCc1nn(C)c2c(=O)[nH]c(-c3cc(S(=O)(=O)N4CCN(CCO)CC4)ccc3OCC)nc12,7.83
2,CC(=O)OCCC(SC(C)=O)=C(C)N(C=O)Cc1cnc(C)nc1N,4.46
3,COP(=S)(NC(C)C)Oc1ccccc1C(=O)OC(C)C (stereo unspecified),11.7
4,CCc1nnc(NS(=O)(=O)c2ccc(N)cc2)s1,4.81
5,CC(C)=CC1C(C(=O)OCc2coc(Cc3ccccc3)c2)C1(C)C (stereo unspecified),13.6
6,CCc1cc2cc(OC)c(OC)cc2c(Cc2ccccc2)n1,8.29
7,CC(=O)OC1C=CC2C3Cc4ccc(O)c5c4C2(CCN3C)C1O5 (stereo unspecified),3.75
8,Cc1cnc(NC(=O)C2=C(O)c3ccccc3S(=O)(=O)N2C)s1,7.09
9,CC(Cc1ccc(C(C)C(=O)O)cc1)C(=O)O (stereo unspecified),6.99
10,CCc1cccc(CC)c1N(COC)C(=O)CS(=O)(=O)O,7.19
11,CCOP(=O)(SC(C)CC)N1CCSC1=O (stereo unspecified),7.73
12,COC(=O)C1=C(C)NC(C)=C(C(=O)OC(C)(C)CN(C)CCC(c2ccccc2)c2ccccc2)C1c1cccc([N+](=O)[O-])c1 (stereo unspecified),11.1
13,CCCCC(CC)COC(=O)C(C#N)=C(c1ccccc1)c1ccccc1 (stereo unspecified),13.4
14,CN1CCCCC(n2cc(C(=O)c3cccc4ccccc34)c3ccccc32)C1 (stereo unspecified),8.61
15,CCOP(=S)(Oc1ccc(C#N)cc1)c1ccccc1 (stereo unspecified),10.9
16,CC=C1CC(C)C(C)(O)C(=O)OCC2=CC[N+]3([O-])CCC(OC1=O)C23 (stereo unspecified),5.07
17,COc1cccc(C2(O)CCCCC2CN)c1 (stereo unspecified),5.19
18,Nc1ncnc2nc[nH]c12,2.43
